These results are taken from ChEMBL document CHEMBL5233277, “Oxidative Metabolism as a Modulator of Kratom's Biological Actions” (J Med Chem, 2021).

Active and inactive are the calls of the source. The rule behind the calls is not given here.

For series [1], the system named is Mus musculus. Briefly: Antinociceptive activity in sc dosed C57BL/6J mouse model assessed as peak effect measured at 20 mins by radiant heat tail flick assay. It is filed as functional. On the technique in general: In hot-plate and tail-flick tests a longer latency is read as antinociception.
Series [2] is described as follows: Drug metabolism in C57BL/6J mouse liver microsomes assessed as mitragynine pseudoindoxyl formation at 1 uM incubated for 60 mins by LC-MS/MS analysis. It is filed as ADME, Microsome. The conditions noted are these: 1 h. In general terms: Liver microsomes are vesicles of endoplasmic reticulum, rich in cytochrome P450 enzymes.
Series [3] deals with Mus musculus. Briefly: Antinociceptive activity in KOR knock out C57BL/6J mouse at 45 mg/kg, po measured after 20 mins. It is filed as functional, organism-based.
Series [4] relates to Mus musculus. The experiment in a line: Antinociceptive activity in po dosed C57BL/6J mouse model assessed as peak effect measured at 20 mins by radiant heat tail flick assay. It is filed as functional.
Series [5] can be described thus: Drug concentration in C57BL/6J mouse brain at 30 mg/kg, po measured after 24 hrs by LC-MS/MS analysis. It counts as ADME, organism-based. The note with it: in vivo, BLD = below limit of detection.
Series [6] can be described thus: Drug metabolism in human S9 fraction assessed as mitragynine pseudoindoxyl formation at 1 uM incubated for 60 mins in absence of NADPH by LC-MS/MS analysis. It is filed as ADME, subcellular. The note with it: s9, 1 h.
Series [7] in a line: Drug concentration in C57BL/6J mouse brain at 30 mg/kg, sc measured after 20 mins by LC-MS/MS analysis. It counts as ADME, organism-based. The conditions noted are these: read-out: Ct.
Series [8] relates to Mus musculus. The experiment in a line: Antinociceptive activity in MOR knock out 129Sv6 mouse at 10 mg/kg, po measured after 15 mins. It is filed as functional, organism-based.
In series [9] the target is Cytochrome P450 3A (Mus musculus, UniProt O09158+Q64464+Q64481+Q9JMA7). Briefly: Metabolic stability in CYP3A KO C57BL/6J mouse liver microsomes assessed as CYP3A-mediated decomposition by measuring half life at 1 uM incubated for 60 mins in presence of ketoconazole by LC-MS/MS analysis. The note with it: 1 h. It counts as ADME, Microsome.
Series [10] is described as follows: Drug metabolism in C57BL/6J mouse brain assessed as 3-dehydromitragynine formation at ED80, po. It is filed as ADME, tissue-based.
A short description of series [11]: Drug concentration in C57BL/6J mouse plasma at 30 mg/kg, po measured after 24 hrs by LC-MS/MS analysis. It is filed as ADME, organism-based. The conditions noted are these: in vivo, BLD = below limit of detection.
Series [12] can be described thus: Drug concentration in 129Sv6 mouse brain at 10 mg/kg, po measured after 15 mins by LC-MS/MS analysis. It is filed as ADME, organism-based. The conditions noted are these: read-out: Ct.
Series [13] can be described thus: Drug concentration in 129Sv6 mouse brain at 10 mg/kg, sc measured after 15 mins by LC-MS/MS analysis. It counts as ADME, organism-based. The note with it: read-out: Ct.
Series [14] in a line: Drug metabolism in human liver microsomes assessed as 3-dehydromitragynine formation at 1 uM incubated for 60 mins by LC-MS/MS analysis. It counts as ADME, Microsome. The conditions noted are these: 1 h.
For series [15], the system named is Mus musculus. The experiment in a line: Antinociceptive activity in sc dosed 129Sv6 mouse model assessed as time required for peak effect at ED50 by radiant heat tail flick assay. It counts as functional.
The nature of series [16]: Drug metabolism in C57BL/6J mouse brain assessed as mitragynine pseudoindoxyl formation at 30 mg/kg, po measured after 8 hrs by LC-MS/MS analysis. It counts as ADME, organism-based. The conditions noted are these: in vivo.
The target in series [17] is Cytochrome P450 3A (Homo sapiens, UniProt P08684+P20815+Q9HB55+P24462). The experiment in a line: Metabolic stability in human liver microsomes assessed as CYP3A-mediated decomposition by measuring half life at 1 uM incubated for 60 mins in presence of ketoconazole by LC-MS/MS analysis. The note with it: 1 h. It is filed as ADME, Microsome.
The nature of series [18]: Drug metabolism in human liver microsomes assessed as 3-dehydromitragynine formation at 1 uM incubated for 60 mins in presence of ketoconazole by LC-MS/MS analysis. It counts as ADME, Microsome. The conditions noted are these: 1 h.
Series [19] concerns Mus musculus. The experiment in a line: Antinociceptive activity in KOR knock out 129Sv6 mouse at 10 mg/kg, po measured after 15 mins. It counts as functional, organism-based.
Series [20] in a line: Drug metabolism in human S9 fraction assessed as 3-dehydromitragynine formation at 1 uM incubated for 60 mins in presence of NADPH by LC-MS/MS analysis. It counts as ADME, subcellular. The conditions noted are these: s9, 1 h.
The nature of series [21]: Drug metabolism in 129Sv6 mouse brain assessed as mitragynine pseudoindoxyl formation at 10 mg/kg, po measured after 15 mins by LC-MS/MS analysis. It counts as ADME, organism-based. The note with it: in vivo, 0.25 h.
Series [22] has as its system Mus musculus. Briefly: Antinociceptive activity in po dosed 129Sv6 mouse model assessed as peak effect measured at 15 mins by radiant heat tail flick assay. The conditions noted are these: 129Sv6, 0.25 h. It counts as functional.

A word on the ED50: it is the dose at which the effect has come halfway, by size or by number of responders.

On to `CC[C@@H]1CN2CCc3c([nH]c4cccc(OC)c34)[C@@H]2C[C@@H]1/C(=C\OC)C(=O)OC`, for which the ED50 with Mus musculus [1] is 25.9 mg/kg; with Mus musculus [4] it was 6.25 mg/kg; in the series on Mus musculus [22] it was 4 mg/kg. In addition, the Drug metabolism result in series [2] is “Metabolite_Detected”; in series [6] it was “Metabolite_Notdetected”; in [10] it was 0.094 µM; in series [14], “Metabolite_Detected”; in series [16] it was “Metabolite_Notdetected”; in [18], “Metabolite_Detected”. For the same compound, the Drug metabolism result in series [20] is on record as “Metabolite_Detected”; in series [21], 180 nM. For the same compound, the result in the series with Mus musculus [3] and in the series on Mus musculus [19] was Active. For the same compound, the Ct result in series [5] is recorded as “Bld”. Also, the concentration at 20 min in series [7] was determined as 9.74 µM. Besides, the result in the series on Mus musculus [8] was inactive. In addition, the t1/2 was found to be 25.2 min at Cytochrome P450 3A [9] and 37.4 min at Cytochrome P450 3A [17]. For the same compound, in series [11], the Cp entry is “Bld”. In addition, the concentration at 0.25 h in series [12] stood at 12.2 µM; in series [13], 30.1 µM. For the same compound, the Time in the series on Mus musculus [15] is reported as 15 min.
